Results reported in patent US11007184B2, “Cancer treatments using combinations of type 2 MEK and ERK inhibitors” (BIOMED VALLEY DISCOVERIES, INC., priority 2013, dated 2021).

Legend:
HCT116 Parental = experiment: Single agent proliferation assay (CellTiter-Glo, 72 h); type: cell-based; details: Homo sapiens, HCT-116
HCT116 KRAS KO (+/−) = experiment: as above; type: cell-based; details: Homo sapiens, HCT-116
RKO Parental = experiment: as above; type: cell-based
RKO BRAF KO (+/−/−) = experiment: as above; type: cell-based
A375 cells [1] = experiment: Focused combination study, Alamar Blue viability assay; type: cell-based, human; details: with the lower concentrations of Sorafenib
Description: (§1) Combinations were tested using a 10×8 dose matrix with a final DMSO concentration of 0.2%. A 96 hour assay incubation period followed, with subsequent addition of Alamar Blue 10% (v/v) and 4 hours incubation prior to reading on a fluorescent plate reader. After reading Alamar Blue, the medium/Alamar Blue mix was flicked off and 100 μl of CellTiter-Glo/PBS (1:1) added and the plates processed as per the manufacturer's instructions (Promega). Media only background values were subtracted before the data was analysed. The Bliss additivity model was then applied. In brief, predicted fractional inhibition values for combined inhibition were calculated using the equation […]) where A and B are the fractional inhibitions obtained by drug A alone or drug B alone at specific concentrations. Cbliss is the fractional inhibition that would be expected if the combination of the two drugs were exactly additive. Cbliss values are subtracted from the experimentally observed fractional inhibition values to give an 'excess over Bliss' value. […] Excess over Bliss values are plotted as heat maps±SD. For focused combination studies, the Alamar Blue viability assays were performed as described above for combination studies. Additionally, Caspase-Glo 3/7 assays were performed. In brief, HCT116 cells were seeded in triplicate in white 96-well plates at a cell density of 5000 cells/well in McCoy's 5A plus 10% FBS. A375 cells were seeded at a density of 5000 cells/well in DMEM plus 10% FBS. […] The final concentration of DMSO was 0.2%, and 800 nM staurosporine was included as a positive control. 24 and 48 hour assay incubation periods were used. Then, Caspase-Glo® 3/7 50% (v/v) was added, plates were mixed for 5 minutes on an orbital shaker and incubated for 1 hour at room temperature prior to reading on a luminescent plate reader. Media only background values were subtracted before the data was analysed.

HCT116 cells = experiment: as above; type: cell-based, human
Description: as §1

A375 cells [2] = experiment: Dose escalation study; type: cell-based, human; details: Month 2; for Dose escalation progress: A375 cells; for Concentration in which escalated cells were growing: single agent escalation
Excerpt: Medium was refreshed every 3-4 days. […] Again, medium was refreshed every 3-4 days. The process was repeated as required (FIG. 19).

[3] = system: MAPK signaling in A375 and HCT116 cells; experiment: Western blot analysis of MAPK signaling; type: cell-based, human
Description: For Western blot studies, HCT116 cells (5×10^6) were seeded into 10 cm dishes in McCoy's 5A plus 10% FBS. […] Cells were allowed to adhere overnight prior to addition of the indicated amount of test compound (BVD-523) or vehicle control. Cells were treated for either 4 or 24 hours before isolation of whole-cell protein lysates, as specified below. Cells were harvested by trypsinisation, pelleted and snap frozen. Lysates were prepared with RIPA (Radio-Immunoprecipitation Assay) buffer, clarified by centrifugation and quantitated by bicinchoninic acid assay (BCA) assay. 20-50 μg of protein was resolved by SDS-PAGE electrophoresis, blotted onto PVDF membrane and probed using the antibodies detailed in Table 14 (for the 4-hour treatment) and Table 15 (for the 24-hour treatment) below.

[4] = system: A375 cells escalated with BVD-523 (BVD-523 line); experiment: Proliferation assay (Alamar Blue, 96 hours), dose escalation study; type: cell-based; details: Homo sapiens, A-375, Month 3, growing in 1.2 μM BVD-523, read-out: Relative IC50
A375 cells [5] = experiment: Combination study, 10×8 dose matrix, Alamar Blue and CellTiter-Glo, Bliss additivity model; type: cell-based, human; details: single agent
Description: Combinations were tested using a 10×8 dose matrix with a final DMSO concentration of 0.2%. A 96 hour assay incubation period followed, with subsequent addition of Alamar Blue 10% (v/v) and 4 hours incubation prior to reading on a fluorescent plate reader. After reading Alamar Blue, the medium/Alamar Blue mix was flicked off and 100 μl of CellTiter-Glo/PBS (1:1) added and the plates processed as per the manufacturer's instructions (Promega). Media only background values were subtracted before the data was analysed. The Bliss additivity model was then applied.
In brief, predicted fractional inhibition values for combined inhibition were calculated using the equation Cbliss=A+B−(A×B) where A and B are the fractional inhibitions obtained by drug A alone or drug B alone at specific concentrations. Cbliss is the fractional inhibition that would be expected if the combination of the two drugs were exactly additive. Cbliss values are subtracted from the experimentally observed fractional inhibition values to give an ‘excess over Bliss’ value. Excess over Bliss values greater than 0 indicate synergy, whereas values less than 0 indicate antagonism. Excess over Bliss values are plotted as heat maps±SD.
The single and combination data are also presented as dose-response curves generated in GraphPad Prism (plotted using % viability relative to DMSO only treated controls).

[6] = system: A375 cells escalated with dabrafenib + trametinib (Dab/Tram line)
A375 Parental = experiment: Single agent proliferation assay (CellTiter-Glo, 72 h); type: cell-based; details: Homo sapiens, A-375
A375 NRAS (Q61K/+) = experiment: as above; type: cell-based; details: Homo sapiens, A-375

Structure (SMILES) | IC50 (HCT116 KRAS KO (+/−)) [nM] | IC50 (A375 NRAS (Q61K/+)) [nM] | IC50 (HCT116 Parental) [nM] | IC50 (RKO Parental) [nM] | IC50 (RKO BRAF KO (+/−/−)) [nM] | Combination interaction with Sorafenib (A375 cells [1]) | Combination interaction with AZ628 (HCT116 cells) | Combination interaction with Sorafenib (HCT116 cells; Trametinib: with higher concentrations of Sorafenib) | Dose escalation progress (A375 cells [2]) | Concentrations required to induce changes in substrate phosphorylation and effector targets of ERK kinases ([3]; RAF and RAS mutant cancer cells in-vitro, acute and prolonged treatment) | RSK1/2 phosphorylation at residues strictly dependent on ERK (T359/5363) ([3]; following BVD-523 treatment) | Cellular ERK enzyme activity ([3]; following either acute or prolonged treatment) | IC50 [4] [nM] | Sensitivity of A375 cells, which carry a BRAF (V600E) mutation (A375 cells [5]) | Concentration in which escalated cells were growing (A375 cells [2]) [× parental cell IC50] | IC50 [6] [nM] | IC50 (A375 Parental) [nM]
CC(C)Nc1cc(-c2c[nH]c(C(=O)N[C@H](CO)c3cccc(Cl)c3)c2)c(Cl)cn1 [BVD-523] | 316 | – | 256 | 621 | 762 | window of synergy | windows of synergy | windows of synergy | progressed more slowly | low micromolar range | reduced phosphorylation | fully inhibited | – | – | – | – | –
CC(C)(C)c1nc(-c2cccc(NS(=O)(=O)c3c(F)cccc3F)c2F)c(-c2ccnc(N)n2)s1 [Dabrafenib, dabrafenib] | – | – | – | – | – | – | – | – | quickest | – | – | – | 18.4 | sensitive | 100 | 58 | –
CC(=O)O[C@H]1C(=O)[C@@]2(C)[C@H]([C@H](OC(=O)c3ccccc3)[C@]3(O)C[C@H](OC(=O)[C@H](O)[C@@H](NC(=O)c4ccccc4)c4ccccc4)C(C)=C1C3(C)C)[C@]1(OC(C)=O)CO[C@@H]1C[C@@H]2O [Paclitaxel] | – | 6 | – | – | – | – | – | – | – | – | – | – | – | – | – | – | –
O=C(Nc1ccc2[nH]nc(-c3ccncc3)c2c1)[C@@H]1CCN(CC(=O)N2CCN(c3ccc(-c4ncccn4)cc3)CC2)C1 [SCH772984] | 141 | 79 | 116 | 126 | 125 | – | – | – | – | – | – | – | – | – | – | – | 43

Continued by falling IC50 (HCT116 KRAS KO (+/−)), values first:

IC50 (HCT116 KRAS KO (+/−)) [nM] | IC50 (A375 NRAS (Q61K/+)) [nM] | Structure (SMILES) | IC50 (HCT116 Parental) [nM] | IC50 (RKO Parental) [nM] | IC50 (RKO BRAF KO (+/−/−)) [nM] | Combination interaction with Sorafenib (A375 cells [1]) | Combination interaction with AZ628 (HCT116 cells) | Combination interaction with Sorafenib (HCT116 cells; Trametinib: with higher concentrations of Sorafenib) | Dose escalation progress (A375 cells [2]) | Concentrations required to induce changes in substrate phosphorylation and effector targets of ERK kinases ([3]; RAF and RAS mutant cancer cells in-vitro, acute and prolonged treatment) | RSK1/2 phosphorylation at residues strictly dependent on ERK (T359/5363) ([3]; following BVD-523 treatment) | Cellular ERK enzyme activity ([3]; following either acute or prolonged treatment) | IC50 [4] [nM] | Sensitivity of A375 cells, which carry a BRAF (V600E) mutation (A375 cells [5]) | Concentration in which escalated cells were growing (A375 cells [2]) [× parental cell IC50] | IC50 [6] [nM] | IC50 (A375 Parental) [nM]
113 | 33 | Cn1cnc2c(F)c(Nc3ccc(Br)cc3F)c(C(=O)NOCCO)cc21 [MEK-162] | 114 | 210 | 23 | – | – | – | – | – | – | – | – | – | – | – | 23
61 | 3 | O=C(c1ccc(F)c(F)c1Nc1ccc(I)cc1F)N1CC(O)([C@@H]2CCCCN2)C1 [GDC-0973] | 90 | 40 | 31 | – | – | – | – | – | – | – | – | – | – | – | 2
29 | 10 | O=C(NOCCO)c1ccc2cncn2c1Nc1ccc(I)cc1F [GDC-0623] | 31 | 32 | 5 | – | – | – | – | – | – | – | – | – | – | – | 8
6 | – | CC(=O)Nc1cccc(-n2c(=O)n(C3CC3)c(=O)c3c(Nc4ccc(I)cc4F)n(C)c(=O)c(C)c32)c1 [Trametinib, trametinib] | 7 | 8 | 3 | – | – | – | – | – | – | – | 1.7 | – | 100 | – | 0.3
